In patent US20090176726A1, “METHODS FOR TREATING MITF-RELATED DISORDERS” (priority 2005, published 2009):
Read-outs that look alike come from different tables or passages of the source.

What was measured:
[1] = test system: Human melanoma cells (UACC62); assay: Cell death of transfected UACC62 cells exposed to DMOG; assay type: cell-based
From the text: (§1) Human melanoma cells (UACC62) were transfected with a vector that constitutively expresses MITF off a promoter different from its natural promoter. As a control, other cells were transfected with empty vector. Both cell types were exposed to increasing levels of DMOG, which mimics certain aspects of hypoxia in upregulating HIF.

[2] = test system: MITF; assay: MITF protein level in human melanoma cells (UACC62); assay type: cell-based
[3] = test system: HIF-1α; assay: HIF-1α protein level in human melanoma cells (UACC62); assay type: cell-based
[4] = test system: MITF; assay: MITF expression in UACC62 cells transfected with constitutive MITF vector or empty vector; assay type: cell-based, human; details: increasing levels of DMOG
From the text: as §1

[5] = test system: FoxD1; assay type: cell-based, human
[6] = test system: MITF; assay type: cell-based, human
[7] = test system: MITF mRNA; assay type: cell-based, human
[8] = test system: HIF-1α; assay type: cell-based, human
[9] = UACC62 cells transformed with empty vector
[10] = UACC62 cells, 200 μM DFO, 0, 2, 6, 8 and 24 hrs, FIG. 4B

In the case of COC(=O)CNC(=O)C(=O)OC [DMOG, dimethyl-oxalylglycine], the cell death ([1]; UACC62 cells that constitutively express MITF, at DMOG levels lethal to empty vector cells) is reported as “protected from cell death”, the cell death [1, 9] is reported as “lethal” and the “level of MITF protein” value ([2]; UACC62 cells, 1 mM DMOG, 0, 2, 6, 8 and 24 hrs, FIG. 4A) is reported as “decreased”. For the same compound, the “HIF-1α levels at 24 hours” value ([3]; UACC62 cells, 1 mM DMOG, 24 hours compared with 8 hours, FIG. 4A) was “somewhat lower than at 8 hours”, the “HIF-1α protein level, 2 to 8 hours” value ([3]; UACC62 cells, 1 mM DMOG, FIG. 4A) was “increased steadily” and the MITF expression [4, 9] was “significant decrease”. For the same compound, the MITF expression ([4]; UACC62 cells transformed with vector that constitutively expresses MITF) was “did not exhibit a detectable decrease”.

In the case of [Cl-].[Cl-].[Co+2] [CoCl2], the “FoxD1 expression (microarray)” value [5] is reported as “upregulated”, the “level of MITF protein” value [6] is reported as “decreased as CoCl2 was increased” and the MITF protein levels [2] is reported as “decreased”. For the same compound, the “downregulation of MITF by CoCl2” value [2] was “substantially blocked”, the “level of MITF protein” value [2] was “decreased” and the “MITF mRNA levels” value [7] was “decreased”. For the same compound, the HIF-1α levels [3] was “increased”, the “level of HIF-1α protein” value [3] was “increased” and the “level of HIF-1α” value [8] was “increased as CoCl2 was increased”.

In the case of CC(=O)N(O)CCCCCNC(=O)CCC(=O)N(O)CCCCCNC(=O)CCC(=O)N(O)CCCCCN [DFO, desferrioxamine], the MITF protein levels [2, 10] is reported as “decreased steadily” and the HIF-1α protein levels [3, 10] is reported as “increased steadily”.
